Assay results: article PMC9784018, “Rational Strategy for Designing Peptidomimetic Small Molecules Based on Cyclic Peptides Targeting Protein–Protein Interaction between CTLA-4 and B7-1” (Pharmaceuticals, 2022)
Positions of bridges follow the written chain, without caps; N, C: chain ends. Residues, ends and D or L forms follow the SMILES beside them.

Tests used:
[1] = biological target: T1, CTLA-4 (Homo sapiens, UniProt P16410); experiment: Competitive ELISA against biotinylated C4m-3127 peptide; format: binding; conditions: competition with 30 μM biotinylated C4m-3127 peptide on immobilized CTLA-4; data not shown
T1 sequence (P16410 36-223): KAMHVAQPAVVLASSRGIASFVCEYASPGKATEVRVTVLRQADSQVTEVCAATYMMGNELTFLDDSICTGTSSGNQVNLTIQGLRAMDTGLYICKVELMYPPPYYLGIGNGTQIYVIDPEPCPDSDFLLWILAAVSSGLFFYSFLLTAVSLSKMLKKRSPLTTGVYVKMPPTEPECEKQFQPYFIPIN
Description: Competition experiments were performed using biotinylated C4m-3127 peptide instead of biotinylated B7-1 in the CTLA-4:B7-1[Biotinylated] inhibitor screening assay. The biotinylated C4m-3127 peptide was optimized to a concentration of 30 μM in an earlier experiment. CTLA-4 immobilized on a 384-well plate was reacted with PGF00506 in 11-point two-fold serial dilution from 1000 to 0.98 μM by assay buffer. Then, the biotinylated peptides were added to wells for competitive reaction. After washing, the residual amounts of biotinylated peptides were detected using streptavidin-HRP.

[2] = biological target: T2, interaction between CTLA-4 and B7-1 (Homo sapiens, UniProt P16410); experiment: CTLA-4:B7-1[Biotinylated] Inhibitor Screening Assay (BPS Bioscience kit); format: binding
T2 construct: purchased BPS Bioscience Inc
T2 sequence (P16410 36-161 limits assumed): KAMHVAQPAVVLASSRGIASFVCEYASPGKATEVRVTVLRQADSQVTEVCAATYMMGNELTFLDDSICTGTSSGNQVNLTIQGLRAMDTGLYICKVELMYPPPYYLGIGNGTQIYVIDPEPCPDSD
Description: (§1) We prepared the C4m-3127 cyclic peptide using chemical synthesis and examined its properties. First, the inhibitory activity was tested using a kit (CTLA-4:B7-1[Biotinylated] Inhibitor Screening Assay, BPS Bioscience Inc.) (Figure 5A). […] In a sequence of C4m-3127, the GG linker behind C-terminal Cys had mutated into Glu and Arg.
A cyclic peptide with a low EC50 value was synthesized by adding glycine to the N-terminus at Toray Research Center.
(B) Flow cytometry affinity analysis.

[3] = Solubility of synthesized peptide; format: physicochemical; conditions: chemically synthesized peptide, in inhibitor screening assay
Description: as §1

Compound	IC50 [1] [µM]	IC50 ([2]; inhibition of CTLA-4:B7-1 interaction, luminescence, four-parameter logistic fit, read-out: IC50) [µM]	inhibitory activity compared to PGF00432 ([2]; ratio of IC50 values) [fold]	inhibitory activity compared to C4m-3127 ([2]; ratio of IC50 values, C4m-3127 synthetic peptide IC50 = 11.5 μM) [fold]	solubility [3]
N=C(N)NCCC[C@H]1C(=O)N(CCC(c2ccccc2)c2ccccc2)C[C@@H]2N(C(=O)OCc3ccccc3)O[C@H](CC3CCCCC3)C(=O)N21 [PGF00506, Benzyl (3R,6S,9aS)-3-(cyclohexylmethyl)-8-(3,3-diphenylpropyl)-6-(3-guanidinopropyl)-4,7-dioxohexahydropyrazino [2,1-c][1,2,4]oxadiazine-1(6H)-carboxylate]	10.5	6.8	43	1.7	
CC[C@H](C)[C@@H]1NC(=O)[C@@H]2CCCN2C(=O)[C@H](CC(C)C)NC(=O)[C@H](Cc2ccccc2)NC(=O)[C@@H]2CCCN2C(=O)[C@H](Cc2c[nH]cn2)NC(=O)[C@H](CCSC)NC(=O)[C@@H](NC(=O)CN)CSSC[C@@H](C(=O)N[C@@H](CCC(=O)O)C(=O)N[C@@H](CCCNC(=N)N)C(=O)O)NC(=O)[C@H](Cc2ccccc2)NC(=O)[C@H](Cc2c[nH]cn2)NC(=O)[C@H](Cc2c[nH]cn2)NC(=O)[C@H](CO)NC(=O)[C@H](C(C)C)NC1=O [C4m-3127 peptide] (H-GCMHPFLPIVSHHFCER-OH; disulfide 2-15; N-terminus and C-terminus assumed)					improved solubility
